Source: patent US20090088574A1, “CRYSTAL OF 1,2-DIHYDROPYRIDINE COMPOUND (TYPE IV)” (EISAI R&D MANAGEMENT CO., LTD., priority 2005, published 2009)

How the values were obtained:
[1] = Physical stability in mixing operation in the presence of water or water-ethanol (1:1) mixed solution (powder X-ray diffraction before/after); format: physicochemical; conditions: mixing in agate mortar at room temperature for a few minutes with dropwise water or water-ethanol (1:1) mixed solution, dried at about 60° C. for 2 to 3 hours
Protocol: Physical Stability in Mixing Operation in the Presence of Water or Water-Ethanol (1:1) Mixed Solution
About 60 to 150 mg of crystals obtained in Reference Example A1 (Anhydrous form II) and crystals obtained in Example 1 (Crystal form IV) were placed in an agate mortar, and the mixing operation was carried out at room temperature for a few minutes while the dropwise addition of water (or water-ethanol (1:1) mixed solution) continues. Subsequently, the crystals were dried at about 60° C. for 2 to 3 hours. The powder X-ray diffraction of the crystals obtained and crystals of before mixing operation were each measured under the following measurement conditions.
D8 DISCOVER with GADDS manufactured by Bruker AXS Ltd.
Tube voltage: 40 kV Tube current: 200 mA Scanning range (2θ): 5 to 40° Collimator: 0.3 mm double slit
The powder X-ray diffraction pattern of Anhydrous form II before and after mixing operation is shown in FIG. 3, and the powder X-ray diffraction pattern of Crystal form IV is shown in FIG. 4. The mixing operation of Anhydrous form II in the presence of water was performed twice.

[2] = Chargeability (static potential of the powder after stirring); format: physicochemical; conditions: about 1 g stirred for 30 minutes in weighing bottle with fluoroplastic-coated stirring bar
Protocol: About 1 g of respective compounds is weighed into a weighing bottle (diameter of 35 mm). A stirring bar [fluoroplastic (tetrafluoroethylene resin) coating; 20 mm] is placed in the bottle and after the lid is in place, the powders are stirred for 30 minutes. The lid is opened at the same time that stirring is stopped; and the static potential of the powder is measured using a static potential measuring instrument.
STATIRON-DZ3 manufactured by Shishido Electrostatic, Ltd.

AMPA receptor = conditions: see Patent Document 1 (WO/JP01/96308); cited from earlier work

SMILES	change of crystal form in mixing operation (physical stability) [1]	static potential of the powder (chargeability) [2]	antagonistic action against AMPA receptor (AMPA receptor)
N#Cc1ccccc1-c1cc(-c2ccccn2)cn(-c2ccccc2)c1=O [Example 1, 3-(2-Cyanophenyl)-5-(2-pyridyl)-1-phenyl-1,2-dihydopyridin-2-one]	do not change their crystal forms	–	–
N#Cc1ccccc1-c1cc(-c2ccccn2)cn(-c2ccccc2)c1=O [Reference Example A1, 3-(2-cyanophenyl)-5-(2-pyridyl)-1-phenyl-1,2-dihydropyridin-2-one]	change their crystal forms	70-100 V	–
N#Cc1ccccc1-c1cc(-c2ccccn2)cn(-c2ccccc2)c1=O [compound (1), 3-(2-cyanophenyl)-5-(2-pyridyl)-1-phenyl-1,2-dihydropyridin-2-one]	–	–	significant antagonistic action
